In general, IC50 refers to the point on the concentration scale where inhibition reaches its midpoint.

We go through three compounds from patent US9981972B2, “N-hydroxy bicyclic hydantoin carbamates as tools for identification of serine hydrolase targets” (ABIDE THERAPEUTICS, INC., priority 2014, dated 2018).

One test concerns the target T1, LYPLA1 (Mus musculus, UniProt P97823).
T1 construct: a complex proteome endogenously expressing LYPLA1/2 was incubated with test compound; from tissue; host or cells: mouse brain, membrane fraction
Briefly: Gel-based competitive ABPP in vitro, mouse brain membrane proteome. The class given is biochemical. The settings on record: 30 min, one replicate; for inhibition at 0.1 µM: 0.1 μM compound, read-out: LYPLA1 % INH 0.1 μM; for inhibition at 1 µM: 1 μM compound, read-out: LYPLA1 % INH 1 μM; for inhibition at 10 µM: 10 μM compound, read-out: LYPLA1 % INH 10 μM; for inhibition at 100 µM: 100 μM compound, read-out: LYPLA1 % INH 100 μM. The protocol: (§1) Assay Overview: The purpose of this assay was to determine whether test compounds can inhibit LYPLA1 and LYPLA2 in a complex proteomic lysate and to assess anti-target inhibition using a competitive activity-based proteomic profiling (ABPP) assay. In this assay, a complex proteome endogenously expressing LYPLA1/2 was incubated with test compound followed by reaction with a rhodamine-conjugated fluorophosphonate (FP-Rh) serine-hydrolase specific activity-based probe. The reaction products were separated by SDS-PAGE and visualized in-gel using a flatbed fluorescence scanner. The percentage activity remaining was determined by measuring the integrated optical density of the bands. […] Percent inhibition was calculated relative to a DMSO (no compound) control.
(§2) Protocol Summary: Mouse brain membrane proteome (50 μL reaction volume, 1 mg/mL in DPBS) was treated with 0.1-100 μM test compound (1 μL of a 50× stock in DMSO) for 30 minutes at 37° C. FP-Rh (1 μL of 50× stock in DMSO, Thermo #88318) was added to a final concentration of 2 μM. The reactions were incubated for 30 minutes at 25° C., quenched with 16 μL 4×SDS-PAGE loading buffer (reducing), separated by SDS-PAGE and visualized by in-gel fluorescent scanning. The percentage activity remaining was determined by measuring the integrated optical density of the bands relative to a DMSO-only (no compound) control. Assay Cutoff: Compounds with ≥50% inhibition of targets at 1 μM test compound concentration were considered active.
(§3) N-Hydroxy bicyclic hydantoin carbamates (Compounds 1-20) listed in Table 1 were subjected to gel-based competitive ABPP screening to assess SH reactivity against more than 20 FP-sensitive SHs visible by 1D SDS-PAGE separation and fluorescent detection in the mouse brain proteome (see FIG. 1). […] Compound treatment ([…], 30 minutes) was followed by labeling with SH-specific ABPP probe FP-Rh (2 μM, 30 minutes), 1D-SDS-PAGE, and in-gel fluorescent visualization of FP-labeled proteins. Assignment of LYPLA1/2 bands was based on correlation of molecular weights, expression and inhibition profiles with LC-MS/MS data and recombinant enzyme expression. Proteins were listed as anti-targets if at least 50% inhibition was observed as quantified relative to the DMSO control.
(§4) Compounds 1-20 were subjected to gel-based competitive ABPP profiling to assess potency and selectivity against several dozen FP-sensitive SHs in the mouse brain membrane proteome, which endogenously expresses LYPLA1 and LYPLA2, as well a diversity of potential SH anti-targets. Compounds were tested at 100 μM, 10 μM, 1 μM, and/or 0.1 μM compound concentration.

Another test addresses T2, LYPLA2 (Mus musculus, UniProt Q9WTL7).
T2 construct: a complex proteome endogenously expressing LYPLA1/2 was incubated with test compound; from tissue; host or cells: mouse brain, membrane fraction
The description is as above. It is filed as biochemical. The conditions noted are these: 30 min, one replicate; for inhibition at 0.1 µM: 0.1 μM compound, read-out: LYPLA2 % INH 0.1 μM; for inhibition at 1 µM: 1 μM compound, read-out: LYPLA2 % INH 1 μM; for inhibition at 10 µM: 10 μM compound, read-out: LYPLA2 % INH 10 μM; for inhibition at 100 µM: 100 μM compound, read-out: LYPLA2 % INH 100 μM. The protocol:
as §1, §2, §3, §4

Test [1] has as its system FP-sensitive SHs in the mouse brain membrane proteome. The experiment in a line: Gel-based competitive ABPP in vitro, mouse brain membrane proteome, anti-targets. The class given is biochemical. The settings on record: for Anti-target(s) 0.1 μM: SHs with at least 50% inhibition at 0.1 μM compound; for Anti-target(s) 1 μM: SHs with at least 50% inhibition at 1 μM compound; for Anti-target(s) 10 μM: SHs with at least 50% inhibition at 10 μM compound; for Anti-target(s) 100 μM: SHs with at least 50% inhibition at 100 μM compound. The protocol:
as §1, §2, §3, §4

Another test has as its target T3, human LYPLA1 (Homo sapiens, UniProt O75608).
T3 construct: endogenous human LYPLA1/2 in a HeLa soluble proteome; endogenous in cells; host or cells: HeLa (soluble proteome in vitro; cultured cells in situ)
Briefly: IC50 by gel-based competitive ABPP in vitro, soluble HeLa cell proteome. It is filed as biochemical. The conditions noted are these: human LYPLA isoform, three replicates; Table 2 prints no unit, nM; read-out: LYPLA1 IC50. The protocol:
(§5) Assay Overview: The purpose of this assay was to determine IC50 values of powder samples of test compounds for enzyme of interest activity, and anti-targets in a complex proteomic lysate using a gel-based competitive ABPP assay. In this assay, a complex proteome was incubated with test compound followed by reaction with FP-Rh and SDS-PAGE analysis as described above.
(§6) Protocol Summary: Soluble HeLa cell proteome (50 μL reaction volume, 1 mg/mL in DPBS) or mouse brain membrane proteome (50 μL reaction volume, 1 mg/mL in DPBS) was treated with varying concentrations of test compound (1 μL of a 50× stock in DMSO) for 30 minutes at 37° C. FP-Rh (1 μL of 50× stock in DMSO) was added to a final concentration of 2 μM. The reaction was incubated for 30 minutes at 25° C., quenched with 16 μL 4×SDS-PAGE loading buffer (reducing), separated by SDS-PAGE and visualized by in-gel fluorescent scanning. The percentage activity remaining was determined by measuring the integrated optical density of the enzymes of interest, and anti-target bands relative to a DMSO-only (no compound) control. IC50 values were determined from dose-response curves from three replicates at each inhibitor concentration: 1, 10, 100, 1000, 10000 nM and 0.01, 0.1, 1, 10, 100, 1000, 10000, 50000, and 100000 nM.

A further test has as its target T4, human LYPLA2 (Homo sapiens, UniProt O95372).
T4 construct: endogenous human LYPLA1/2 in a HeLa soluble proteome; endogenous in cells; host or cells: HeLa (soluble proteome in vitro; cultured cells in situ)
Described as above. The class given is biochemical. The settings on record: human LYPLA isoform, three replicates; Table 2 prints no unit, nM; read-out: LYPLA2 IC50. The protocol: as §5, §6

Another test concerns the target T5, ABHD4 (Homo sapiens, UniProt Q8TB40).
T5 sequence (Q8TB40 1-342): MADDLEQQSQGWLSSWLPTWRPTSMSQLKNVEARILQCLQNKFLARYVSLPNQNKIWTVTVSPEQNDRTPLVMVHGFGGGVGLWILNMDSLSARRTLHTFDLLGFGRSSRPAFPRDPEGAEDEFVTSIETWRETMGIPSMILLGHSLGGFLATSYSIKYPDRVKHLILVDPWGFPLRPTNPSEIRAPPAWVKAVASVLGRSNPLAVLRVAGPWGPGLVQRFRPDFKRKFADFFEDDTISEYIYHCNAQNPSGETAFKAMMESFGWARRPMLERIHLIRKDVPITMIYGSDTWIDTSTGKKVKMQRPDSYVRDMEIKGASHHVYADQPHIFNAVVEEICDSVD
Briefly: Gel-based competitive ABPP, recombinant enzyme in transfected HEK293T cell lysates. The class given is biochemical. Details: myc-his; expressed in transfected cells; host or cells: HEK293T, transient transfection, pcDNA3.1/myc-his; lysate used in vitro. The settings on record: recombinant, combined HEK293T lysates, gel-based ABPP. The protocol: (§7) HEK293T cells were seeded at 2×10^5 per well on 6 well plates and grown for 48 h. They were then transfected with mABHD3 (pCMV-Sport6), hABHD4 (pcDNA3.1/myc-his), hPPT1 (pCMV6-XL5), or hPPT1 S115A (pCMV6-XL5), by incubating 0.5 μg of DNA with 3 μL of PEI MAX (1 mg/mL, Polysciences, Inc) in serum-free DMEM for 30 min, then adding them to cells. After 48 h cells were either treated with compound in situ, as described above, or harvested for in vitro studies. The […] PPT1 mutation was introduced using QuikChange II Site Directed Mutagenesis Kit (Agilent) with the following primers: […]
Human ABHD3 and ABHD4 were recombinantly expressed by transient transfection in HEK293T cells, and the cell lysates were combined to provide a convenient assay for monitor inhibition of both enzymes by gel-based ABPP (see FIG. 8A). […]

The target of another test is T6, PPT1 (Homo sapiens, UniProt P50897).
T6 sequence (P50897 28-306): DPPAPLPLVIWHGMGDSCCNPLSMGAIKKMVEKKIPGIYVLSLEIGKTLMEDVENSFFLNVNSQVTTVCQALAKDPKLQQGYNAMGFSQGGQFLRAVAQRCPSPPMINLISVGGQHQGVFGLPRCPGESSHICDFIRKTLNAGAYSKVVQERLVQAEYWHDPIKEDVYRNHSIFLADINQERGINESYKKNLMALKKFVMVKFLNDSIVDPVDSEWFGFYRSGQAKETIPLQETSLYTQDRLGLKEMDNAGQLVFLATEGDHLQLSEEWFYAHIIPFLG
Briefly: In situ inhibition of hPPT1 in transfected HEK293T cells, competitive ABPP with Compound 39 probe. The class given is cell-based. The conditions noted are these: 2 μM, hPPT1-transfected HEK293T cells, in situ. On the set-up: expressed in transfected cells; host or cells: HEK293T. The protocol: as §7
In situ inhibitor treatments of human cell lines were performed as described previously (Hsu et al., J Med Chem 56, 8270-8279, 2012). Briefly, PC3 or transfected HEK293T cells were grown to confluency in serum-containing media (RPMI or DMEM, respectively). The culture media was then removed and replaced with fresh media containing DMSO or inhibitor at the desired concentration and incubated for 4 hours in a tissue culture incubator (37° C., 5% CO2). Cells were then washed with PBS, harvested, washed with PBS once more, and lysed with a probe sonicator.
This possibility was explored by treating HEK293T cells transfected with human PPT1 (hPPT1) with Compound 37 (5 μM, 4 h pre-treatment) or DMSO followed by cell lysis and treatment with Compound 39 (5 μM, 1 h). A strong, but diffuse Compound 37-sensitive, Compound 39-labeled protein band was detected by gel-based ABPP in hPPT1-transfected, but not mock-transfected cell lysates (see FIG. 14), and this diffuse signal was compressed to a tight, faster-migrating band matching the predicted molecular weight of PPT1 following treatment with the glycosidase PNGaseF (see FIG. 14). Western blotting with an anti-PPT1 antibody confirmed a similar migration pattern for hPPT1 protein in transfected cell lysates (see FIG. 14, bottom panel).
A structurally diverse panel of N-hydroxy bicyclic hydantoin carbamates were assayed at 2 or 0.2 μM for in situ inhibition of hPPT1 in transfected HEK293T cells.

Structures are written as SMILES. “Also recorded” adds a separate entry of the source.

T1 sequence (P97823 whole entry): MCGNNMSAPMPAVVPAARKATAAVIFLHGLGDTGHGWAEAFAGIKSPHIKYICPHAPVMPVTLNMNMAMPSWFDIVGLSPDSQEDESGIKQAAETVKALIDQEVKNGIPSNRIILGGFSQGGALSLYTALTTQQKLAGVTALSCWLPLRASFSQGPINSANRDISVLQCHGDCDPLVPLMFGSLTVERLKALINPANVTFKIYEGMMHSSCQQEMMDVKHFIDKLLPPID
T2 sequence (Q9WTL7 whole entry): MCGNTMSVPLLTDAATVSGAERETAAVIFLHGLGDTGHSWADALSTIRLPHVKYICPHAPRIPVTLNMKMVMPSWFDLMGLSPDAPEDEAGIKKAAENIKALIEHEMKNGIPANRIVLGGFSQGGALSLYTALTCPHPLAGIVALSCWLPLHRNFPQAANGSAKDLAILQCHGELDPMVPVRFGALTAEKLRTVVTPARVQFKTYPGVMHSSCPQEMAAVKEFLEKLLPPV
T4 sequence (O95372 whole entry): as the sequence (Q9WTL7 whole entry) above, with N154A, T193S counted along it
T3 sequence (O75608 whole entry): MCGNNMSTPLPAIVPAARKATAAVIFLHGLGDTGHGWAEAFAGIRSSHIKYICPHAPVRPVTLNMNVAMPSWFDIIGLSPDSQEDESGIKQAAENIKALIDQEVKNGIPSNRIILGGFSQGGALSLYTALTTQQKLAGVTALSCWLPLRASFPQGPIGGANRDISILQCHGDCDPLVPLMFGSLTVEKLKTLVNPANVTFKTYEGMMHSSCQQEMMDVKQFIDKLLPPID

With `O=C(ON1C(=O)C2CN(C(=O)N3CCCC3)CCN2C1=O)N1CCC(CCc2ccc(Cl)cc2)CC1` (stereo not shown) [Compound 3, 1,3-dioxo-7-(pyrrolidine-1-carbonyl)hexahydroimidazo[1,5-a]pyrazin-2(3H)-yl 4-(4-chlorophenethyl)piperidine-1-carboxylate], at LYPLA1, the inhibition at 0.1 µM turned out to be 50%, the inhibition at 1 µM is 100%, the inhibition at 10 µM stood at 100% and the inhibition at 100 µM came to 100%. On LYPLA2, the inhibition at 0.1 µM was 50%, the inhibition at 1 µM stood at 100%, the inhibition at 10 µM worked out at 100% and the inhibition at 100 µM amounted to 100%. Besides, in test [1], the “Anti-target(s) 0.1 μM” value was “ABHD6”, the “Anti-target(s) 1 μM” value is recorded as “FAAH,; also recorded: ABHD6”, the “Anti-target(s) 10 μM” value was “FAAH,; also recorded: ABHD6” and the “Anti-target(s) 100 μM” value is “FAAH,; also recorded: ABHD12,; also recorded: ABHD4,; also recorded: MAGL,; also recorded: ABHD6”. For the same compound, at human LYPLA1, the 50% inhibitory concentration (IC50) came out at 225 nM. Moreover, the IC50 on human LYPLA2 is 384 nM.
For `O=C(ON1C(=O)C2CN(Cc3ccc(Br)cc3)CCN2C1=O)N1CCC(CCc2ccc(Cl)cc2)CC1` (stereo not shown) [Compound 13, 7-(4-bromobenzyl)-1,3-dioxohexahydroimidazo[1,5-a]pyrazin-2(3H)-yl 4-(4-chlorophenethyl)piperidine-1-carboxylate], at LYPLA1, the inhibition at 0.1 µM was 0%, the inhibition at 1 µM came to 10%, the inhibition at 10 µM worked out at 75% and the inhibition at 100 µM was determined as 90%. Moreover, on LYPLA2, the inhibition at 0.1 µM amounted to 0%, the inhibition at 1 µM came to 10%, the inhibition at 10 µM came out at 75% and the inhibition at 100 µM turned out to be 90%. Besides, at ABHD4, the “preference ABHD4 over ABHD3” value is “preferentially inhibited ABHD4 over ABHD3”. In test [1], the “Anti-target(s) 0.1 μM” value is listed as “ABHD6”, the “Anti-target(s) 1 μM” value is “FAAH,; also recorded: ABHD4,; also recorded: ABHD6”, the “Anti-target(s) 10 μM” value is reported as “FAAH,; also recorded: ABHD4,; also recorded: ABHD6” and the “Anti-target(s) 100 μM” value was “FAAH,; also recorded: ABHD4,; also recorded: MAGL,; also recorded: ABHD6”.
On to `COc1ccc(N2CCN(C(=O)ON3C(=O)C4CN(CC5CCN(C(=O)OC(C)(C)C)CC5)CCN4C3=O)CC2)cc1` (stereo not shown) [Compound 24, 7-((1-(tert-butoxycarbonyl)piperidin-4-yl)methyl)-1,3-dioxohexahydroimidazo[1,5-a]pyrazin-2(3H)-yl 4-(4-methoxyphenyl)piperazine-1-carboxylate], for which the “hPPT1 (in situ), % @ 2 μM” value at PPT1 turned out to be 100% @ 2 μM.
